Source: patent US7138361B2, “Herbicidal heterocycles” (E. I. du Pont de Nemours and Company, priority 2000, dated 2006)

Tests used:
Format in all cases: in vivo
[1] = tested on: duck salad (Heteranthera limosa); test: Test B flooded paddy test; conditions: Rate 1000 g/ha, scale of 0 to 100 where 0 is no effect and 100 is complete control, visually evaluated after 13 to 15 days
Outline: (§1)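 Visual injury score on a 0–100 scale, where 100 means complete control, assigned against untreated controls 13 to 15 days after plants at the 2-leaf stage were treated under flooded paddy conditions.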

[2] = tested on: barnyardgrass (Echinochloa crus-galli); test: Test B flooded paddy test; conditions: Rate 1000 g/ha, scale of 0 to 100 where 0 is no effect and 100 is complete control, visually evaluated after 13 to 15 days
Outline: as §1

[3] = tested on: smallflower flatsedge (Cyperus difformis); test: Test B flooded paddy test; conditions: Rate 1000 g/ha, scale of 0 to 100 where 0 is no effect and 100 is complete control, visually evaluated after 13 to 15 days
Outline: as §1

[4] = tested on: rice (Oryza saliva); test: Test B flooded paddy test; conditions: Rate 1000 g/ha, scale of 0 to 100 where 0 is no effect and 100 is complete control, visually evaluated after 13 to 15 days
Outline: as §1

[5] = tested on: duck salad (Heteranthera limosa); test: Test C flooded paddy test; conditions: for Ducksalad plant response rating: Flooded Paddy, scale 0 to 100, 0 no effect, 100 complete control; for Plant response rating, Ducksalad / Plant response rating (scale 0 to 100), Ducksalad: flooded paddy test; for Plant response rating, Ducksalad: scale 0 to 100 (0 no effect, 100 complete control)
Outline: (§2)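 Response on a 0-to-100 scale (no effect to complete control) was assessed by eye versus controls. Plants had reached 2 leaves when treated in flooded paddy conditions. The assessment took place after 12–14 days of greenhouse growth.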

[6] = tested on: barnyardgrass (Echinochloa crus-galli); test: Test C flooded paddy test; conditions: for Barnyardgrass plant response rating: Flooded Paddy, scale 0 to 100, 0 no effect, 100 complete control; for Plant response rating, Barnyardgrass / Plant response rating (scale 0 to 100), Barnyardgrass: flooded paddy test; for Plant response rating, Barnyardgrass: scale 0 to 100 (0 no effect, 100 complete control)
Outline: as §2

[7] = tested on: smallflower flatsedge (Cyperus difformis); test: Test C flooded paddy test; conditions: for Flatsedge plant response rating: Flooded Paddy, scale 0 to 100, 0 no effect, 100 complete control; for Plant response rating, Flatsedge / Plant response rating (scale 0 to 100), Flatsedge: flooded paddy test; for Plant response rating, Flatsedge: scale 0 to 100 (0 no effect, 100 complete control)
Outline: as §2

[8] = tested on: rice (Oryza saliva); test: Test C flooded paddy test; conditions: for Rice plant response rating: Flooded Paddy, scale 0 to 100, 0 no effect, 100 complete control; for Plant response rating, Rice / Plant response rating (scale 0 to 100), Rice: flooded paddy test; for Plant response rating, Rice: scale 0 to 100 (0 no effect, 100 complete control)
Outline: as §2

[9] = tested on: blackgrass (Alopecurus myosuroides); test: Test B postemergence; conditions: 13 to 15 days
Outline: (§3)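 Greenhouse test: chemicals are formulated in a surfactant-containing non-phytotoxic solvent and applied either preemergence to planted seeds or postemergence to plants 2 to 18 cm tall. Response is rated visually versus controls after 13 to 15 days, 0 meaning no effect and 100 complete control.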

[10] = tested on: lambsquarters (Chenopodium album); test: Test B postemergence; conditions: 13 to 15 days
Outline: as §3

[11] = tested on: morningglory (Ipomoea hederacea); test: Test C postemergence
Outline: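 Pre- and postemergence treatments used a non-phytotoxic solvent/surfactant formulation; post-treated plants measured 2 to 18 cm. Greenhouse hold 12–14 d; % control estimated visually relative to controls.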

[12] = tested on: Sunflower; test: Test C preemergence; conditions: scale 0 to 100
[13] = Rate 125 g/ha, scale 0 (no effect) to 100 (complete control)
[14] = Rate 500 g/ha, scale 0 to 100, 0 is no effect, 100 is complete control
[15] = Rate 125 g/ha, scale 0 to 100, 0 no effect, 100 complete control
[16] = Rate 250 g/ha, scale 0 to 100 (0 no effect, 100 complete control)
[17] = Rate 16 g/ha, visually evaluated after 12 to 14 days, 0 = no effect, 100 = complete control
[18] = under head Rate 16 g/ha, (own rate not given), after 12 to 14 days

## CCC(C)c1ccn(C2SCN(c3cccc(C(F)(F)F)c3)C2=O)n1 (stereo not shown) [Compound 20]
[1]
  Plant response rating, Ducksalad: 100
[2]
  Plant response rating, Barnyardgrass: 100
[3]
  Plant response rating, Flatsedge: 100
[4]
  Plant response rating, Rice: 100
[5]; Rate 250 g/ha
  Ducksalad plant response rating: 100
[5]; Rate 500 g/ha
  Ducksalad plant response rating: 100
[5]; Rate 62 g/ha
  Plant response rating, Ducksalad: 100
[5]; Rate 125 g/ha
  Plant response rating, Ducksalad: 100
[6]; Rate 250 g/ha
  Barnyardgrass plant response rating: 100
[6]; Rate 500 g/ha
  Barnyardgrass plant response rating: 100
[6]; Rate 62 g/ha
  Plant response rating, Barnyardgrass: 70
[6]; Rate 125 g/ha
  Plant response rating, Barnyardgrass: 100
[7]; Rate 250 g/ha
  Flatsedge plant response rating: 100
[7]; Rate 500 g/ha
  Flatsedge plant response rating: 100
[7]; Rate 62 g/ha
  Plant response rating, Flatsedge: 90
[7]; Rate 125 g/ha
  Plant response rating, Flatsedge: 100
[8]; Rate 250 g/ha
  Rice plant response rating: 60
[8]; Rate 500 g/ha
  Rice plant response rating: 70
[8]; Rate 62 g/ha
  Plant response rating, Rice: 0
[8]; Rate 125 g/ha
  Plant response rating, Rice: 20
[9]; [13]
  Plant response rating, Blackgrass: 0
[9]; [14]
  Plant response rating, Blackgrass: 0
[10]; [13]
  Plant response rating, Lambsquarters: 90
[10]; [14]
  Plant response rating, Lambsquarters: 90
[11]; [15]
  Plant response rating, Morningglory: 20
[11]; [16]
  Plant response rating, Morningglory: 20

## CCC(CC)c1ccn(C2SCN(c3cccc(C(F)(F)F)c3)C2=O)n1 (stereo not shown) [Compound 21]
[12]; Rate 31 g/ha
  Plant response rating, Sunflower: 20
[1]
  Plant response rating, Ducksalad: 100
[2]
  Plant response rating, Barnyardgrass: 100
[3]
  Plant response rating, Flatsedge: 100
[4]
  Plant response rating, Rice: 90
[5]; Rate 250 g/ha
  Ducksalad plant response rating: 90
[5]; Rate 500 g/ha
  Ducksalad plant response rating: 100
[5]; Rate 62 g/ha
  Plant response rating, Ducksalad: 80
[5]; Rate 125 g/ha
  Plant response rating, Ducksalad: 90
[6]; Rate 250 g/ha
  Barnyardgrass plant response rating: 50
[6]; Rate 500 g/ha
  Barnyardgrass plant response rating: 100
[6]; Rate 62 g/ha
  Plant response rating, Barnyardgrass: 40
[6]; Rate 125 g/ha
  Plant response rating, Barnyardgrass: 50
[7]; Rate 250 g/ha
  Flatsedge plant response rating: 90
[7]; Rate 500 g/ha
  Flatsedge plant response rating: 100
[7]; Rate 62 g/ha
  Plant response rating, Flatsedge: 80
[7]; Rate 125 g/ha
  Plant response rating, Flatsedge: 90
[8]; Rate 250 g/ha
  Rice plant response rating: 70
[8]; Rate 500 g/ha
  Rice plant response rating: 70
[8]; Rate 62 g/ha
  Plant response rating, Rice: 0
[8]; Rate 125 g/ha
  Plant response rating, Rice: 20
[9]; [13]
  Plant response rating, Blackgrass: 0
[9]; [14]
  Plant response rating, Blackgrass: 0
[10]; [13]
  Plant response rating, Lambsquarters: 100
[10]; [14]
  Plant response rating, Lambsquarters: 100
[11]; Rate 31 g/ha, scale 0 to 100
  Plant response rating, Morningglory: 0
[11]; [15]
  Plant response rating, Morningglory: 60

## CC(C)(C)c1ccn(C2SCN(c3cccc(OC(F)(F)F)c3)C2=O)n1 (stereo not shown) [Compound 30]
[1]
  Plant response rating, Ducksalad: 100
[2]
  Plant response rating, Barnyardgrass: 100
[3]
  Plant response rating, Flatsedge: 100
[4]
  Plant response rating, Rice: 90
[5]; Rate 250 g/ha
  Ducksalad plant response rating: 100
[5]; Rate 500 g/ha
  Ducksalad plant response rating: 100
[5]; Rate 62 g/ha
  Plant response rating, Ducksalad: 70
[5]; Rate 125 g/ha
  Plant response rating, Ducksalad: 100
[5]; [17]
  Plant response rating (scale 0 to 100), Ducksalad: 50
[5]; [18]
  Plant response rating (scale 0 to 100), Ducksalad: 0
[6]; Rate 250 g/ha
  Barnyardgrass plant response rating: 100
[6]; Rate 500 g/ha
  Barnyardgrass plant response rating: 100
[6]; Rate 62 g/ha
  Plant response rating, Barnyardgrass: 100
[6]; Rate 125 g/ha
  Plant response rating, Barnyardgrass: 100
[6]; [17]
  Plant response rating (scale 0 to 100), Barnyardgrass: 80
[6]; [18]
  Plant response rating (scale 0 to 100), Barnyardgrass: 60
[7]; Rate 250 g/ha
  Flatsedge plant response rating: 100
[7]; Rate 500 g/ha
  Flatsedge plant response rating: 100
[7]; Rate 62 g/ha
  Plant response rating, Flatsedge: 90
[7]; Rate 125 g/ha
  Plant response rating, Flatsedge: 100
[7]; [17]
  Plant response rating (scale 0 to 100), Flatsedge: 90
[7]; [18]
  Plant response rating (scale 0 to 100), Flatsedge: 90
[8]; Rate 250 g/ha
  Rice plant response rating: 80
[8]; Rate 500 g/ha
  Rice plant response rating: 80
[8]; Rate 62 g/ha
  Plant response rating, Rice: 0
[8]; Rate 125 g/ha
  Plant response rating, Rice: 20
[8]; [17]
  Plant response rating (scale 0 to 100), Rice: 0
[8]; [18]
  Plant response rating (scale 0 to 100), Rice: 0
[9]; [13]
  Plant response rating, Blackgrass: 0
[9]; [14]
  Plant response rating, Blackgrass: 20
[10]; [13]
  Plant response rating, Lambsquarters: 90
[10]; [14]
  Plant response rating, Lambsquarters: 90
[11]; [15]
  Plant response rating, Morningglory: 0
[11]; [16]
  Plant response rating, Morningglory: 40
[11]; Rate 500 g/ha, scale 0 to 100 (0 no effect, 100 complete control)
  Plant response rating, Morningglory: 40

## CC(C)(C)c1ccn(C2CCN(c3ccc(Cl)c(Cl)c3)C2=O)n1 (stereo not shown) [Compound 34]
[12]; Rate 31 g/ha
  Plant response rating, Sunflower: 0
[1]
  Plant response rating, Ducksalad: 100
[2]
  Plant response rating, Barnyardgrass: 100
[3]
  Plant response rating, Flatsedge: 100
[4]
  Plant response rating, Rice: 30
[5]; Rate 250 g/ha
  Ducksalad plant response rating: 70
[5]; Rate 500 g/ha
  Ducksalad plant response rating: 100
[5]; Rate 62 g/ha
  Plant response rating, Ducksalad: 20
[5]; Rate 125 g/ha
  Plant response rating, Ducksalad: 50
[6]; Rate 250 g/ha
  Barnyardgrass plant response rating: 80
[6]; Rate 500 g/ha
  Barnyardgrass plant response rating: 80
[6]; Rate 62 g/ha
  Plant response rating, Barnyardgrass: 0
[6]; Rate 125 g/ha
  Plant response rating, Barnyardgrass: 40
[7]; Rate 250 g/ha
  Flatsedge plant response rating: 90
[7]; Rate 500 g/ha
  Flatsedge plant response rating: 100
[7]; Rate 62 g/ha
  Plant response rating, Flatsedge: 70
[7]; Rate 125 g/ha
  Plant response rating, Flatsedge: 90
[8]; Rate 250 g/ha
  Rice plant response rating: 0
[8]; Rate 500 g/ha
  Rice plant response rating: 20
[8]; Rate 62 g/ha
  Plant response rating, Rice: 0
[8]; Rate 125 g/ha
  Plant response rating, Rice: 0
[9]; [13]
  Plant response rating, Blackgrass: 0
[9]; [14]
  Plant response rating, Blackgrass: 0
[10]; [13]
  Plant response rating, Lambsquarters: 90
[10]; [14]
  Plant response rating, Lambsquarters: 100

## CC(C)(C)c1ccn(C2CCN(c3cccc(SC(F)(F)F)c3)C2=O)n1 (stereo not shown) [Compound 93]
[12]; Rate 62 g/ha
  Plant response rating, Sunflower: 0
[1]
  Plant response rating, Ducksalad: 100
[2]
  Plant response rating, Barnyardgrass: 100
[3]
  Plant response rating, Flatsedge: 100
[4]
  Plant response rating, Rice: 50
[5]; Rate 250 g/ha
  Ducksalad plant response rating: 100
[5]; Rate 500 g/ha
  Ducksalad plant response rating: 100
[5]; Rate 62 g/ha
  Plant response rating, Ducksalad: 0
[5]; Rate 125 g/ha
  Plant response rating, Ducksalad: 90
[6]; Rate 250 g/ha
  Barnyardgrass plant response rating: 60
[6]; Rate 500 g/ha
  Barnyardgrass plant response rating: 70
[6]; Rate 62 g/ha
  Plant response rating, Barnyardgrass: 0
[6]; Rate 125 g/ha
  Plant response rating, Barnyardgrass: 50
[7]; Rate 250 g/ha
  Flatsedge plant response rating: 100
[7]; Rate 500 g/ha
  Flatsedge plant response rating: 100
[7]; Rate 62 g/ha
  Plant response rating, Flatsedge: 0
[7]; Rate 125 g/ha
  Plant response rating, Flatsedge: 100
[8]; Rate 250 g/ha
  Rice plant response rating: 20
[8]; Rate 500 g/ha
  Rice plant response rating: 80
[8]; Rate 62 g/ha
  Plant response rating, Rice: 0
[9]; [13]
  Plant response rating, Blackgrass: 0
[9]; [14]
  Plant response rating, Blackgrass: 0
[10]; [14]
  Plant response rating, Lambsquarters: 80
